The values below come from ChEMBL document CHEMBL1201862, “PubChem BioAssay data set” (2004).

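Tested at 5 concentrations; 48 h exposure; 96-well plates; endpoints linearly interpolated, else capped at highest concentration. GI50 is the concentration that inhibits growth by half.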 Active and inactive are the calls of the source. Cut-off read from the data, not from the text of the source: active = GI50 up to about 1.1 µM and inactive = higher.

Some test systems named below: SK-MEL-5; MOLT-4; NCI-H460; COLO 205; LOX IMVI; SK-OV-3; MDA-MB-435; TK-10; UACC-62; SK-MEL-28; M14; K562; A498; RPMI-8226; HCT-15; CCRF-CEM; KM12; OVCAR-3; SF-268; T47D.
Holding throughout (assay): NCI-60 cell line screen, 48 h

As for `N#Cc1c(-c2ccc(Cl)cc2)c(C#N)c(=O)n(NS(=O)(=O)c2ccccc2)c1-c1ccccc1`, the GI50 with SK-MEL-5, in the assay on MOLT-4, with NCI-H460, in the assay on COLO 205, in the assay on LOX IMVI and in the assay with SK-OV-3 was > 25 µM (inactive) in each case. The GI50 in the assay on MDA-MB-435, with TK-10, in the assay on UACC-62, in the assay with SK-MEL-28, with M14 and in the assay on K562 was > 25 µM (inactive) in each case. The GI50 with A498 is > 25 µM (inactive); in the assay on RPMI-8226, 17.2 µM (inactive); in the assay with HCT-15, greater than 25 µM; with CCRF-CEM, > 25 µM (inactive).

Regarding `CN(C)CC1CC/C(=C\c2ccc3c(c2)OCO3)C1=O` (stereo not given), the GI50 in the assay with SK-MEL-5 is 14.2 µM (inactive); in the assay on KM12, 6.79 µM (inactive); with MOLT-4 it was 2.98 µM (inactive); with NCI-H460, 19.5 µM (inactive); in the assay with COLO 205, 8.49 µM (inactive); with LOX IMVI, 1.95 µM (inactive). For the same compound, the GI50 is > 43.1 µM (inactive) in the assay on SK-OV-3; 1.93 µM (inactive) in the assay with MDA-MB-435; 11.1 µM (inactive) in the assay with TK-10; 16.7 µM (inactive) in the assay with UACC-62; 10.5 µM (inactive) in the assay on SK-MEL-28; 7.4 µM (inactive) with M14. Besides, the GI50 is 2.83 µM (inactive) with K562; 7.74 µM (inactive) with OVCAR-3; 11.2 µM (inactive) in the assay with SF-268; 19 µM (inactive) in the assay with A498; 1.85 µM (inactive) in the assay with RPMI-8226; 6.67 µM with HCT-15. In the assay with CCRF-CEM, the GI50 is 2.79 µM (inactive).

Turning to `O=C(NC(CS)C(=O)O)c1c2ccccc2nc2ccccc12` (stereo not given), the GI50 is 3.28 µM (inactive) in the assay with SK-MEL-5; 24.8 µM (inactive) with KM12; 22.2 µM (inactive) with MOLT-4; 23.6 µM (inactive) in the assay on NCI-H460; 4.55 µM (inactive) with COLO 205; 21.5 µM (inactive) in the assay with LOX IMVI. In addition, the GI50 was 95.3 µM (inactive) in the assay on SK-OV-3; 2.81 µM (inactive) with MDA-MB-435; > 100 µM (inactive) in the assay on TK-10; 48.8 µM (inactive) with UACC-62; 74.1 µM (inactive) in the assay with SK-MEL-28; > 100 µM (inactive) with M14. In addition, the GI50 in the assay with K562 was 40.2 µM (inactive); in the assay on OVCAR-3 it was > 100 µM (inactive); in the assay with SF-268, > 100 µM (inactive); in the assay on A498 it was > 100 µM (inactive); with RPMI-8226, 54.1 µM (inactive); in the assay with HCT-15, 12.8 µM. In the assay with CCRF-CEM, the GI50 is 61.7 µM (inactive).

Turning to `CCN1C(=O)/C(=C/Nc2ccccc2)S/C1=N/Nc1nc(-c2ccc(O)c(O)c2)cs1`, the GI50 is 3.96 µM (inactive) in the assay on SK-MEL-5; 5.01 µM (inactive) with KM12; 5.53 µM (inactive) in the assay with MOLT-4; 35.2 µM (inactive) in the assay on NCI-H460; 35.5 µM (inactive) in the assay on COLO 205; 6.08 µM (inactive) in the assay with LOX IMVI. The GI50 in the assay with SK-OV-3 was 33.5 µM (inactive); with MDA-MB-435, 1.71 µM (inactive); in the assay with TK-10, 38.5 µM (inactive); with UACC-62, 6.4 µM (inactive); in the assay with SK-MEL-28, 7.59 µM (inactive); in the assay on M14 it was 5.61 µM (inactive). The GI50 is 3.4 µM (inactive) in the assay on K562; 5.69 µM (inactive) in the assay on OVCAR-3; 23.4 µM (inactive) in the assay on SF-268; 12.3 µM (inactive) with RPMI-8226; 7.76 µM in the assay on HCT-15; 4.53 µM (inactive) in the assay on CCRF-CEM.

Consider `Cc1cn(Cc2ccccc2CCl)c(=O)[nH]c1=O`, for which the GI50 is 7.4 µM (inactive) in the assay with SK-MEL-5; 12.9 µM (inactive) with KM12; 3.15 µM (inactive) with MOLT-4; 21.1 µM (inactive) with NCI-H460; 17.1 µM (inactive) in the assay on COLO 205; 26.4 µM (inactive) with SK-OV-3. Further, the GI50 is 11.5 µM (inactive) in the assay with MDA-MB-435; 15.3 µM (inactive) with TK-10; 4.68 µM (inactive) in the assay with UACC-62; 19.4 µM (inactive) in the assay with SK-MEL-28; 12.9 µM (inactive) in the assay with M14; 4.72 µM (inactive) in the assay with K562. In addition, the GI50 in the assay on OVCAR-3 is 4.24 µM (inactive); with SF-268 it was 13 µM (inactive); in the assay with T47D, 11.5 µM (inactive); with HCT-15, 14.8 µM; with CCRF-CEM, 4.58 µM (inactive).

Take `COC(=O)C1=C(C(=O)OC)C2(OC(C)=O)c3ccccc3-c3ccccc3C12` (stereo not given): the GI50 in the assay with SK-MEL-5 was 14.1 µM (inactive); in the assay on KM12, 12.5 µM (inactive); in the assay on MOLT-4, 1.96 µM (inactive); with NCI-H460, 17 µM (inactive); with COLO 205 it was 1.63 µM (inactive); with LOX IMVI, 5.09 µM (inactive). For the same compound, the GI50 is 15.5 µM (inactive) in the assay with SK-OV-3; 3.6 µM (inactive) in the assay with TK-10; 11 µM (inactive) in the assay with UACC-62; 5.27 µM (inactive) in the assay with SK-MEL-28; 4.79 µM (inactive) in the assay with M14; 1.83 µM (inactive) in the assay with K562. The GI50 in the assay on OVCAR-3 was 5.53 µM (inactive); in the assay with SF-268, 7.62 µM (inactive); in the assay with A498, 18.1 µM (inactive); in the assay on RPMI-8226, 2.62 µM (inactive); in the assay with HCT-15, 5.26 µM; in the assay with CCRF-CEM, 0.733 µM (active).

On to `CCN(CC)CCN(C)CC(C)(C)C(=O)/C=C/c1ccccc1`, for which the GI50 in the assay on SK-MEL-5 was 14.2 µM (inactive); with KM12, 12.1 µM (inactive); in the assay with MOLT-4, 5.16 µM (inactive); in the assay on NCI-H460, 5.68 µM (inactive); in the assay with COLO 205, 13.7 µM (inactive); in the assay with LOX IMVI, 11 µM (inactive). Besides, the GI50 is 12.6 µM (inactive) in the assay on SK-OV-3; 22.2 µM (inactive) with TK-10; 12.7 µM (inactive) with UACC-62; 16 µM (inactive) in the assay with SK-MEL-28; 13 µM (inactive) in the assay on M14; 0.0693 µM (active) in the assay on K562. Further, the GI50 was 13.5 µM (inactive) in the assay with OVCAR-3; 12.6 µM (inactive) in the assay with SF-268; 4.11 µM (inactive) in the assay with A498; 4.15 µM (inactive) with RPMI-8226; 12.5 µM in the assay on HCT-15; 4.99 µM (inactive) in the assay on CCRF-CEM.

Turning to `O=C(O)CCC(=O)OCN1C(=O)C2C3C=CC(C2C1=O)C1C2C(=O)N(COC(=O)CCC(=O)O)C(=O)C2C31` (stereo not given), the GI50 with SK-MEL-5 was > 100 µM (inactive); with KM12, 97.5 µM (inactive); with MOLT-4, > 90.4 µM (inactive); in the assay with NCI-H460, 32.5 µM (inactive); in the assay on COLO 205 it was > 57.8 µM (inactive); in the assay on LOX IMVI it was > 45.5 µM (inactive). Besides, the GI50 with SK-OV-3, with TK-10, in the assay on UACC-62, in the assay on SK-MEL-28, with M14 and with K562 was > 100 µM (inactive) throughout. Further, the GI50 is > 100 µM (inactive) in the assay with OVCAR-3; > 78.9 µM (inactive) in the assay with SF-268; > 100 µM (inactive) in the assay with A498; 21.4 µM (inactive) in the assay on RPMI-8226; 32.4 µM in the assay on HCT-15; 34 µM (inactive) with CCRF-CEM.

Consider `CCOC(=O)C1=C(C)C2C3C(=O)NC(=O)C3C1(C)C1C(=O)NC(=O)C21` (stereo not given), for which the GI50 in the assay on SK-MEL-5, in the assay with KM12, in the assay with MOLT-4, in the assay on NCI-H460, in the assay on COLO 205 and in the assay with LOX IMVI was > 100 µM (inactive) in each case. For the same compound, the GI50 with SK-OV-3, in the assay with TK-10, in the assay on UACC-62, with SK-MEL-28, in the assay with M14 and with K562 was > 100 µM (inactive) in each case. Also, the GI50 is 59.7 µM (inactive) in the assay on OVCAR-3; > 100 µM (inactive) in the assay with SF-268; > 100 µM (inactive) in the assay with A498; > 100 µM (inactive) with RPMI-8226; greater than 100 µM in the assay on HCT-15; > 100 µM (inactive) with CCRF-CEM.

Take `COc1c(C)c(C/C=C(\C)CCCCO[Si](C(C)C)(C(C)C)C(C)C)c(OC)c2ccccc12`: the GI50 with SK-MEL-5 is > 100 µM (inactive); with KM12, > 100 µM (inactive); in the assay with MOLT-4, 47.6 µM (inactive); in the assay on NCI-H460, > 100 µM (inactive); in the assay on COLO 205, > 100 µM (inactive); with LOX IMVI, > 100 µM (inactive). Besides, the GI50 in the assay on SK-OV-3, in the assay on MDA-MB-435, in the assay with TK-10, in the assay with UACC-62, with M14 and in the assay with K562 was > 100 µM (inactive) throughout. The GI50 with OVCAR-3 is > 100 µM (inactive); in the assay on SF-268, > 100 µM (inactive); with HCT-15, greater than 100 µM; in the assay with CCRF-CEM, 49 µM (inactive).

Take `O=C(CCc1cc(-c2ccc(F)cc2)n[nH]1)N(Cc1ccccc1)Cc1ccccc1`: the GI50 with SK-MEL-5, with KM12, in the assay on MOLT-4, with NCI-H460, in the assay on COLO 205 and in the assay with LOX IMVI was > 100 µM (inactive) each time. Besides, the GI50 in the assay on SK-OV-3, in the assay with TK-10, in the assay with UACC-62, with SK-MEL-28, in the assay on M14 and in the assay with K562 was > 100 µM (inactive) throughout. Further, the GI50 is > 100 µM (inactive) in the assay on OVCAR-3; > 100 µM (inactive) in the assay with SF-268; > 100 µM (inactive) in the assay with A498; > 100 µM (inactive) in the assay with RPMI-8226; greater than 100 µM with HCT-15; > 100 µM (inactive) in the assay on CCRF-CEM.
